≈ marks a conversion by molar mass, not a printed value. Where two headings read alike, the source gives them in different places.
What was measured:
HSV-1 = HSV-1 antiviral activity assay (Table 4); assay type: cell-based, Herpes simplex type 1 (HSV-1); design: key to the marks not given beside the values
Method: (§1) a. Herpes simplex type 1 (HSV-1) replicates in the CV-1 cell line. CV-1 is a fibroblast-like cell culture derived from primary African green monkey cells.
(§2) a. Dilute the cells with EMEM to 4×10^5 cells/ml.
(§3) b. See 24-well trays with 0.5 ml per well. Cell concentration is […] cells.
(§4) c. Incubate at 37 C. for 1.5 hours.
(§5) d. The wells can be used over the next several days beginning the day after seeding (preferably 2, 3, or 4).
(§6) a. Remove medium from wells.
(§7) b. Infect well with at least 25 and no more than 80 plaque forming units (PFU) of virus.
(§8) c. Incubate infected cells at 37 C. for 1.5 hrs.
(§9) d. Pour off supernatant at end of incubation period.
(§10) e. Add 0.5 ml of methylcellulose overlay medium (MCO). MCO is a maintenance medium without phenol red made with 1% 4000 centipose methylcellulose. FBS is used at 5% level.
(§11) a. For drug evaluation wet filter paper discs (6 mm dia.) with approx. 0.02 ml of test compound. Allow solvent to evaporate for 20-30 mins. at ambient temperature, then place discs in the well containing CV-1 cells, virus and MCO.
(§12) b. Incubate tissue culture plates for 48 hrs. at 37 C.
(§13) c. After 48 hrs. place 0.5 ml NRMCO on each well. (NRMCO is a maintenance overlay medium without phenol red containing 0.1 mg neutral red dye/ml and 2% 15 Cps. methylcellulose.
(§14) d. Incubate plates at 37 C. and read the following day. Antiviral activity should be observed from two parameters. One is actual reduction in the number of plaques and two is the diminution in plaque diameter.
(§15) a. Antiviral activity (AVA) is scored from 0 to +++.
(§16) +++=complete inhibiton of plaque formation

[1] = system: P388 murine leukemia cells; assay: P388 in vitro antitumor screen (MTT, 48 h); assay type: cell-based
Method: Cell Culture. P388 murine leukemia cells, obtained from the National Cancer Institute, Bethesda, MD, were maintained at 37° C. in 5% CO2 in humidified air. Growth medium was Roswell Park Memorial Institute medium 1640 supplemented with 10% heat-inactivated horse serum. Stock cultures of P388 cells were grown in antibiotic-free growth medium and were subcultured (10^5 cells/ml, 25 ml cultures in T-25 plastic tissue culture flasks) every 2-3 days. […] An appropriate volume of the dilution was transferred to duplicate wells in a 96-well plate, evaporated to dryness, and 200 μl of growth medium containing cells at a density of 1×10^5 cells/ml was added per well. […] For daily quality control, each technician determines the IC50 of fluorouracil for inhibition of P388 cell proliferation. After 48-hour incubations, cell number was determined with the MTT assay (below), calculated as a percent of untreated cell growth, converted to percent inhibition, and reported to the chemist requesting the screen.
Determination of IC50 Values. The initial determination of an IC50 value for inhibition of P388 cell proliferation with a crude, semipure, or pure sample was made by diluting the sample in methanol to the appropriate concentration and then serial 1:1 dilutions were made in duplicate in a 96-well plate, such that the final concentrations in the assay were […] μg/ml. After solvent was evaporated to dryness, cells were added to each well as described above. After 48-hour incubations, cell numbers were determined with the MTT assay, converted to percent control, plotted versus the log of the sample concentration. Curves were fitted by least-squares linear regression of logit-transformed data and the concentration of sample that inhibited cell proliferation by 50% was reported to the chemist requesting the screen.
MTT Assay for Cell Number. MTT or 3-(4,5-Dimethylthiazol-2-yl)-2,5-diphenyl-tetrazolium bromide is used in an established method (J. Immunol. Methods, 1983, 65: 55-63) to enumerate cells rather than "Coulter counting".

CV-1 cells [2] = assay: Cytotoxicity in antiviral assay (Table 4); assay type: cell-based, African green monkey; design: key: 0 = no cytotoxicity, 16 = complete cell destruction
Method: (§17) a. Herpes simplex type 1 (HSV-1) replicates in the CV-1 cell line. CV-1 is a fibroblast-like cell culture derived from primary African green monkey cells. a. For drug evaluation wet filter paper discs (6 mm dia.) with approx. 0.02 ml of test compound. Allow solvent to evaporate for 20-30 mins. at ambient temperature, then place discs in the well containing CV-1 cells, virus and MCO. b. Incubate tissue culture plates for 48 hrs. at 37 C. c. After 48 hrs. place 0.5 ml NRMCO on each well. (NRMCO is a maintenance overlay medium without phenol red containing 0.1 mg neutral red dye/ml and 2% 15 Cps. methylcellulose. b. Cytotoxicity (Cyt) 0=no visual or microscopic cytotoxicity 16=complete cell destruction 8, 10, 12, 14=partial cytotoxicity.

P388 leukemia = assay type: in vivo, BDF1 mice; conditions: days 1-5, mice
Method: P388 leukemia obtained from DBA/2 mice was inoculated ip into BDF1 mice. The inoculum level was 10^6 cells in 0.1 ml. Mice were randomized on day 1 into groups of six mice since bacteriological check of tumor was negative. Test materials were dissolved or suspended in sterile 0.98% NaCl solution with the aid of absolute ethanol and "Tween-80", then administered ip, qD1-5, in a volume of 0.5 ml/mouse. Mice were weighed on days 1 & 5 to provide evidence of toxicity and deaths were recorded daily. Each test included appropriate numbers of untested control mice, one-dose level of the positive reference compound 5-fluorouracil and test material (four dose levels each). Test material were prepared fresh on day 1 and administered daily for five days. Quantity and consistency of test material precluded fresh preparation daily. Doses were derived from prior single treatment acute toxicity assays. The endpoints for therapeutic evaluation were mean and median survival time and long-term survivors on day 30. A 25% percent increase in life span (%ILS) was considered evidence of significant activity.

[3] = system: A549 human lung carcinoma cells; assay: Human tumor cell line assay, A549; assay type: cell-based; conditions: 120 h, read-out: A549: cell density compared with control growth; for activity at 500 fg/mL: 0.5 pg/ml
Method: (§18) HCT-8 human colon tumor cells are grown in RPM1 1640 medium (GIBCO). A549 human lung carcinoma cells and T47D human breast carcinoma cells are cultured in Dulbecco medium (Biologos, Inc.). All media are supplemented with 10% fetal bovine serum and contain 50 μg/ml gentamicin. All human tumor cell lines are incubated in 5% CO2 at 37° C. and subcultured once a week.
(§19) 2. Incubate in a CO2 -incubator for 48 hours.
(§20) 3. Add compound to each well and incubate for an additional 120 hours.
(§21) 4. Discard medium and stain with methylene blue (HCT-8) or crystal violet (A549 & T47D).
(§22) 5. Compare density of drug-treated well with that of the control (no drug added) as follows: ND (not detectable) >90%, 1+=75-90%, 2+=50-74%, 3+=25-49%, 4+=<25% of control growth.
(§23) Final conc. of Vinblastine or Vincristine control (use 2 μl/assay).
(§24) For solvents other than water, allow solvent to evaporate from tube or well in hood. Always run a solvent control in duplicate in the last two wells of each plate or four tubes for each rack of 72 or fewer tubes. Also run four wells or tubes with media and cells only per run of plates or tubes. When using volumes of aqueous solutions greater than 200 ml, dry sample and bring to desired concentration in media.

CV-1 cells [4] = assay: Cytotoxicity in antiviral disc assay (Table 3); assay type: cell-based, African green monkey; design: key: 0 = no cytotoxicity, 16 = complete cell destruction
Method: as §17

[5] = system: T47D human breast carcinoma cells; assay: Human tumor cell line assay, T47D; assay type: cell-based; conditions: 120 h, read-out: T47D: cell density compared with control growth
Method: as §18, §19, §20, §21, §22, §23, §24

[6] = system: Herpes simplex virus type 1 (HSV-1); assay: Antiviral disc assay for HSV-1 (Table 3); assay type: cell-based, Herpes simplex type 1 (HSV-1)
Method: as §1, §2, §3, §4, §5, §6, §7, §8, §9, §10, §11, §12, §13, §14, §15, §16

[7] = Biological activities of synthesized versus natural topsentin
[8] = Mus musculus, P388 murine leukemia cells, 48 h, MTT

In the case of `O=C(c1nc(-c2c[nH]c3cc(O)ccc23)c[nH]1)c1c[nH]c2ccccc12` [Compound 4, Isotopsentin], the AVA (HSV-1; Table 4, 20 μg/disk) was “+++”, the IC50 [1, 8] was 4 µg/mL (≈ 11.7 µM) and the CYT. (CV-1 cells [2]; Table 4, 2 μg/disk) was 0. The CYT. (CV-1 cells [2]; Table 4, 20 μg/disk) was 0.
In the case of `O=C(c1nc(-c2c[nH]c3cc(Br)ccc23)c[nH]1)c1c[nH]c2cc(O)ccc12` [Compound 2, Bromotopsentin], the “Survival % T/C” value (P388 leukemia; 37.5 mg/kg ip) was 105%, the “Survival % T/C” value (P388 leukemia; 75 mg/kg ip) was 111% and the “Survival % T/C” value (P388 leukemia; 150 mg/kg ip) was 116%. The activity at 500 fg/mL [3] was > 90%, the activity at 5 pg/mL ([3]; 5 pg/ml) was > 90% and the activity at 50 pg/mL [3] was < 25%. The AVA (HSV-1; Table 4, 10 μg/disk) was “++”, the IC50 [1, 8] was 7 µg/mL (≈ 16.6 µM) and the CYT. (CV-1 cells [2]; Table 4, 5 μg/disk) was 0. For the same compound, the CYT. (CV-1 cells [2]; Table 4, 10 μg/disk) was 0, the CYT. (CV-1 cells [4]; Table 3, 50 ug/disk) was 0 and the CYT. (CV-1 cells [4]; Table 3, 200 ug/disk) was 0. For the same compound, the activity at 5 pg/mL [5] was 50 to 74%, the activity at 20 pg/mL [5] was 25 to 49% and the activity at 50 pg/mL [5] was < 25%. The activity at 500 fg/mL [5] was > 90% and the AVA ([6]; Table 3, 200 ug/disk) was “++”.
`O=C(c1nc(-c2c[nH]c3ccc(O)cc23)c[nH]1)c1c[nH]c2ccccc12` [Compound 8, Neoisotopsentin] showed an IC50 [1, 8] of 1.8 µg/mL (≈ 5.26 µM), a CYT. (CV-1 cells [2]; Table 4, 20 μg/disk) of 0 and a CYT. (CV-1 cells [4]; Table 3, 20 ug/disk) of 0.
With `O=C(C1=NC(c2c[nH]c3ccccc23)CN1)c1c[nH]c2cc(Br)ccc12` (stereo not drawn) [Compound 3, 4,5-dihydro-6"-deoxybromotopsentin] the AVA (HSV-1; Table 4, 20 μg/disk) was “+++” and the “P388 IC50” value ([1]; P388 murine leukemia cells, 48 h, MTT) was 4.0 µg/mL.
For `O=c1[nH]cc(F)c(=O)[nH]1` [fluorouracil, 5-fluorouracil, reference compound], the inhibition at 0.2 µg/mL ([1]; Mus musculus, P388, read-out: inhibition of cell replication) was ~95%.
For `O=C(c1nc(-c2c[nH]c3cc(O)ccc23)c[nH]1)c1c[nH]c2cc(O)ccc12` [Compound 5, Hydroxytopsentin], the AVA (HSV-1; Table 4, 20 μg/disk) was “++”, the IC50 [1, 8] was 0.3 µg/mL (≈ 0.837 µM) and the CYT. (CV-1 cells [2]; Table 4, 2 μg/disk) was 0. The CYT. (CV-1 cells [2]; Table 4, 20 μg/disk) was 0 and the CYT. (CV-1 cells [4]; Table 3, 20 ug/disk) was 0.
`O=C(c1nc(-c2c[nH]c3ccccc23)c[nH]1)c1c[nH]c2ccc(O)cc12` [Compound 7, Neotopsentin] showed an IC50 [1, 8] of 2.5 µg/mL (≈ 7.3 µM), a CYT. (CV-1 cells [2]; Table 4, 20 μg/disk) of 0 and a CYT. (CV-1 cells [4]; Table 3, 20 ug/disk) of 0.
For `O=C(c1nc(-c2c[nH]c3ccc(O)cc23)c[nH]1)c1c[nH]c2ccc(O)cc12` [Compound 9, Neohydroxytopsentin], the IC50 [1, 8] was > 20 µg/mL, the CYT. (CV-1 cells [2]; Table 4, 20 μg/disk) was 0 and the CYT. (CV-1 cells [4]; Table 3, 20 ug/disk) was 0.
With `O=C(c1nc(-c2c[nH]c3ccccc23)c[nH]1)c1c[nH]c2cc(O)ccc12` [Compound 1, Topsentin] the “Survival % T/C” value (P388 leukemia; 37.5 mg/kg ip) was 111%, the “Survival % T/C” value (P388 leukemia; 75 mg/kg ip) was 116% and the “Survival % T/C” value (P388 leukemia; 150 mg/kg ip) was 132%. The “Survival % T/C” value (P388 leukemia; 300 mg/kg ip) was 110%, the activity at 500 fg/mL [3] was > 90% and the activity at 50 pg/mL [3] was < 25%. The “biological activities compared with natural topsentin” value [7] was “identical with natural topsentin in spectral data and in biological activities”, the AVA (HSV-1; Table 4, 2 μg/disk) was “+++” and the AVA (HSV-1; Table 4, 20 μg/disk) was “+++”. It also gave an IC50 [1, 8] of 2 µg/mL (≈ 5.84 µM), a CYT. (CV-1 cells [2]; Table 4, 0.2 μg/disk) of 0 and a CYT. (CV-1 cells [2]; Table 4, 2 μg/disk) of 0. It also gave a CYT. (CV-1 cells [2]; Table 4, 20 μg/disk) of 0, a CYT. (CV-1 cells [4]; Table 3, 20 ug/disk) of 0 and a CYT. (CV-1 cells [4]; Table 3, 50 ug/disk) of 0. The CYT. (CV-1 cells [4]; Table 3, 200 ug/disk) was 0, the activity at 5 pg/mL [5] was 50 to 74% and the activity at 20 pg/mL [5] was < 25%. For the same compound, the activity at 50 pg/mL [5] was < 25%, the activity at 500 fg/mL [5] was > 90% and the AVA ([6]; Table 3, 50 ug/disk) was “+”. The AVA ([6]; Table 3, 200 ug/disk) was “++”.
